Test system: HCT116 colorectal cancer cells
Assay: Cisplatin sensitization assay (96 h MTS cell viability);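 note: compound concentration needed to lower the IC50 of Cisplatin alone by a set fold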
Assay type: cell-based
Conditions: Cisplatin sensitization value
How it was run: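 The MTS viability read, after 1 h with reagent, followed 96 h of co-treatment at 37° C. in 5% CO2. Both compound and cisplatin were titrated 2-fold from a 10 μM top final concentration in a complete concentration matrix on HCT116 cells. Scores +++/++/+ reflect cisplatin sensitization value ranges.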

Row | Compound | Cisplatin Sensitization Assay
1 | CN1CCC[C@H]1COc1ccncc1NC(=O)c1c(N)nn2cc(Cl)cnc12 [I-O-50, (S)-2-amino-6-chloro-N-(4-((1-methylpyrrolidin-2-yl)methoxy)pyridin-3-yl)pyrazolo[1,5-a]pyrimidine-3-carboxamide] | + (Compounds with a Cisplatin sensitization value >0.2 μM but <5 μM are marked with “+.”)
2 | CN(C)CCc1cnn(-c2ccncc2NC(=O)c2c(N)nn3cc(F)cnc23)c1 [I-N-9, 2-amino-N-(4-(4-(2-(dimethylamino)ethyl)-1H-pyrazol-1-yl)pyridin-3-yl)-6-fluoropyrazolo[1,5-a]pyrimidine-3-carboxamide] | + (Compounds with a Cisplatin sensitization value >0.2 μM but <5 μM are marked with “+.”)
3 | CN(C)CCN1CCN(c2ccncc2NC(=O)c2c(N)nn3cc(Cl)cnc23)CC1 [I-N-49, 2-amino-6-chloro-N-(4-(4-(2-(dimethylamino)ethyl)piperazin-1-yl)pyridin-3-yl)pyrazolo[1,5-a]pyrimidine-3-carboxamide] | +++ (Compounds with a Cisplatin sensitization value of <0.02 μM are marked with “+++.”)
4 | CC(C)N1CCN(c2ccncc2NC(=O)c2c(N)nn3cc(F)cnc23)CC1 [I-N-4, 2-amino-6-fluoro-N-(4-(4-isopropylpiperazin-1-yl)pyridin-3-yl)pyrazolo[1,5-a]pyrimidine-3-carboxamide] | +++ (Compounds with a Cisplatin sensitization value of <0.02 μM are marked with “+++.”)
5 | Cc1ccncc1NC(=O)c1c(N)nn2cc(Cl)cnc12 [I-C-2, 2-amino-6-chloro-N-(4-methylpyridin-3-yl)pyrazolo[1,5-a]pyrimidine-3-carboxamide] | ++ (Compounds with a Cisplatin sensitization value >0.02 μM but <0.2 μM are marked with “++.”)
6 | CN1CCN(C(=O)N2CCN(c3c(F)cncc3NC(=O)c3c(N)nn4cc(F)cnc34)CC2)CC1 [I-N-140, 2-amino-6-fluoro-N-(5-fluoro-4-(4-(4-methylpiperazine-1-carbonyl)piperazin-1-yl)pyridin-3-yl)pyrazolo[1,5-a]pyrimidine-3-carboxamide] | +++ (Compounds with a Cisplatin sensitization value of <0.02 μM are marked with “+++.”)
7 | Nc1nn2cc(F)cnc2c1C(=O)Nc1cncc(F)c1N1CCN([C@H]2CCOC2)CC1 [I-N-125, (S)-2-amino-6-fluoro-N-(5-fluoro-4-(4-(tetrahydrofuran-3-yl)piperazin-1-yl)pyridin-3-yl)pyrazolo[1,5-a]pyrimidine-3-carboxamide] | +++ (Compounds with a Cisplatin sensitization value of <0.02 μM are marked with “+++.”)
8 | Nc1nn2cc(F)cnc2c1C(=O)Nc1cnccc1-c1ccncc1 [I-C-24, N-([4,4′-bipyridin]-3-yl)-2-amino-6-fluoropyrazolo[1,5-a]pyrimidine-3-carboxamide] | +++ (Compounds with a Cisplatin sensitization value of <0.02 μM are marked with “+++.”)
9 | Nc1nn2cc(F)cnc2c1C(=O)Nc1cncc(F)c1OC1CCN(C2COC2)CC1 [I-O-91, 2-amino-6-fluoro-N-(5-fluoro-4-((1-(oxetan-3-yl)piperidin-4-yl)oxy)pyridin-3-yl)pyrazolo[1,5-a]pyrimidine-3-carboxamide] | ++ (Compounds with a Cisplatin sensitization value >0.02 μM but <0.2 μM are marked with “++.”)
10 | N#CCc1cnc2c(C(=O)Nc3cnccc3-c3ccccc3)c(N)nn2c1 [I-C-6, 2-amino-6-(cyanomethyl)-N-(4-phenylpyridin-3-yl)pyrazolo[1,5-a]pyrimidine-3-carboxamide] | +++ (Compounds with a Cisplatin sensitization value of <0.02 μM are marked with “+++.”)
11 | Nc1nn2cc(F)cnc2c1C(=O)Nc1cncc(F)c1N1CCC(C(=O)N2CC(N3CCCCC3)C2)CC1 [I-G-57, 2-amino-6-fluoro-N-(5-fluoro-4-(4-(3-(piperidin-1-yl)azetidine-1-carbonyl)piperidin-1-yl)pyridin-3-yl)pyrazolo[1,5-a]pyrimidine-3-carboxamide] | +++ (Compounds with a Cisplatin sensitization value of <0.02 μM are marked with “+++.”)
12 | Nc1nn2cc(F)cnc2c1C(=O)Nc1cnccc1-c1ccc(S(=O)(=O)N2CCC2)cc1 [I-C-64, 2-amino-N-(4-(4-(azetidin-1-ylsulfonyl)phenyl)pyridin-3-yl)-6-fluoropyrazolo[1,5-a]pyrimidine-3-carboxamide] | +++ (Compounds with a Cisplatin sensitization value of <0.02 μM are marked with “+++.”)
13 | Nc1nn2cc(F)cnc2c1C(=O)Nc1cnccc1C1CCN(C(=O)C2CC2)CC1 [I-C-70, 2-amino-N-(4-(1-(cyclopropanecarbonyl)piperidin-4-yl)pyridin-3-yl)-6-fluoropyrazolo[1,5-a]pyrimidine-3-carboxamide] | +++ (Compounds with a Cisplatin sensitization value of <0.02 μM are marked with “+++.”)
14 | CN1CCOC(C(=O)N2CCN(c3c(F)cncc3NC(=O)c3c(N)nn4cc(F)cnc34)CC2)C1 (stereo not shown) [I-N-174, 2-amino-6-fluoro-N-(5-fluoro-4-(4-(4-methylmorpholine-2-carbonyl)piperazin-1-yl)pyridin-3-yl)pyrazolo[1,5-a]pyrimidine-3-carboxamide] | +++ (Compounds with a Cisplatin sensitization value of <0.02 μM are marked with “+++.”)
15 | CS(=O)(=O)CC1CCN(c2ccncc2NC(=O)c2c(N)nn3cc(F)cnc23)CC1 [I-N-215, 2-amino-6-fluoro-N-(4-(4-((methylsulfonyl)methyl)piperidin-1-yl)pyridin-3-yl)pyrazolo[1,5-a]pyrimidine-3-carboxamide] | +++ (Compounds with a Cisplatin sensitization value of <0.02 μM are marked with “+++.”)
16 | CCOC1CN(C(=O)C2CCN(c3ccncc3NC(=O)c3c(N)nn4cc(F)cnc34)CC2)C1 [I-G-91, 2-amino-N-(4-(4-(3-ethoxyazetidine-1-carbonyl)piperidin-1-yl)pyridin-3-yl)-6-fluoropyrazolo[1,5-a]pyrimidine-3-carboxamide] | +++ (Compounds with a Cisplatin sensitization value of <0.02 μM are marked with “+++.”)
17 | Nc1nn2cc(Cl)cnc2c1C(=O)Nc1cnccc1OC1CCOCC1 [I-O-61, 2-amino-6-chloro-N-(4-((tetrahydro-2H-pyran-4-yl)oxy)pyridin-3-yl)pyrazolo[1,5-a]pyrimidine-3-carboxamide] | +++ (Compounds with a Cisplatin sensitization value of <0.02 μM are marked with “+++.”)
18 | Nc1nn2cc(F)cnc2c1C(=O)Nc1cnccc1N1CCN(S(=O)(=O)C2CC2)CC1 [I-N-176, 2-amino-N-(4-(4-(cyclopropylsulfonyl)piperazin-1-yl)pyridin-3-yl)-6-fluoropyrazolo[1,5-a]pyrimidine-3-carboxamide] | +++ (Compounds with a Cisplatin sensitization value of <0.02 μM are marked with “+++.”)
19 | CN1CCN(C(=O)C2CCN(c3c(F)cncc3NC(=O)c3c(N)nn4cc(F)cnc34)CC2)CC1(C)C [I-G-15, 2-amino-6-fluoro-N-(5-fluoro-4-(4-(3,3,4-trimethylpiperazine-1-carbonyl)piperidin-1-yl)pyridin-3-yl)pyrazolo[1,5-a]pyrimidine-3-carboxamide] | +++ (Compounds with a Cisplatin sensitization value of <0.02 μM are marked with “+++.”)
